IC50 data for one compound are collected here from paper PMC8301783, “Pitfalls of NMDA Receptor Modulation by Neuroactive Steroids. The Effect of Positive and Negative Modulation of NMDA Receptors in an Animal Model of Schizophrenia” (Biomolecules, 2021).

Molecules are shown by their SMILES. pIC50: −log10 of the molar value.

This test addresses T1, GABAA receptor (GABAAR).
T1 construct: native receptors in rat cerebral cortex membrane homogenates
In words: […]TBPS radioligand displacement, rat cortex membranes. It is filed as binding.

As usually defined, the pIC50 is −log10 of the IC50, conventionally taken in molar units. `CC(=O)[C@H]1CC[C@H]2[C@@H]3CC[C@@H]4C[C@H](OC(=O)[C@@H](N)CCC(=O)O)CC[C@]4(C)[C@H]3CC[C@]12C` [PA-Glu, pregnanolone glutamate] showed a pIC50 of 5.12.
